Experimental data published in patent publication US6858723B1, “Amphiphile cyclodextrins, preparation and use thereof for solubilizing organized systems and incorporating hydrophobic molecules” (Commissariat a l'Energie Atomique, priority 1999, dated 2005).

How the values were obtained:
Assay type in all cases: physicochemical
[1] = neutron diffusion of nanoparticles loaded with hydrophobic compounds
From the text: FIG. 7 represents the neutron diffusion spectra obtained with: • the solution of nanoparticles of cyclodextrin according to example 1 and the fatty acid (1:0.5 eq. mol) (spectrum 9); • the solution of nanoparticles of cyclodextrin according to example 1 and the fatty acid (1:1 eg. mol) (spectrum 10); and • the solution of nanoparticles of cyclodextrin alone (spectrum 11).
In this figure, the theoretical spectrum (spectrum 12) simulating spheres has also been represented.
The intensity I(q) is increased. The Intensity I(q) is proportional to the volume of nanoparticles. The presence of additional molecules (fatty acid molecules) in the nanoparticles increases the value of the contrast and therefore the intensity.
The incorporation in mono-6-(cholest-5-en-3α-ylamide)succinylamide-6-deoxy-2,2′,2″,2′″,2″″,2′″″,2″″″,6′,6″,6′″, 6″″,6′″″,6″″″-trideca-O-methyl-cyclomaltoheptaose nanoparticles of the following hydrophobic compounds: • dothiepin (neurotrope), • chloramphenicol (bacteriostatic), • vitamin A, and • esculin (vascular wall tonic), • were also detected by neutron diffusion. References

[2] = cmc by surface tension measurements
Protocol: The cmc of the cyclodextrin in example 1 was determined with surface tension measurements. The value of the cmc is 9.10^−6 mol/l.

[3] = neutron diffusion of nanoparticle solution; conditions: 10^−2 mol/l in D2O
From the text: The diffusion spectrum obtained from a 10^−2 mol/l solution in D2O of the cyclodextrin derivative in example 1 is represented in FIG. 1 (spectrum 1).
In FIG. 1, the theoretical spectra simulating spheres (spectrum 2), cylinders (spectrum 3) or lamellae (spectrum 4) formed from the cyclodextrin derivative in example 1, at a concentration of 10^−2 mol/l in D2O, are also shown. […] These aggregates are lined on the surface with cyclodextrin cavities available for the inclusion of hydrophobic active molecules, the core being composed of cholesterol groups. The theoretical spectrum simulating spheres gives a mean diameter of […] (50 Å) and a mean number of monomers per nanoparticle of 24.

[4] = static light diffusion of aqueous nanoparticle solutions
Protocol: The mean hydrodynamic diameter of the nanoparticles was measured by quasi-elastic light diffusion. The mean diameter MD value calculated according to the Stokes-Einstein approximation based on the interaction-free perfect sphere model is […] (60 Å). The static light diffusion analysis of aqueous solutions of nanoparticles at different concentrations (2.5.10^−3, 5.10^−3 and 10^−2 mol/l) gives a mean aggregate mass of 43,000 g/mol, which is equivalent to a mean of 24 monomers per nanoparticle.

Compound: CC(CCCCCCCCCCCCCI)CC(=O)O (stereo not shown) [16-iodo-3-methylhexadecanoic acid]
- incorporation in nanoparticles of the cyclodextrin of example 1 [1]: marked modifications on the diffusion spectra

Compound: CN(C)CC/C=C1\c2ccccc2CSc2ccccc21 [dothiepin]
- incorporation in nanoparticles of the cyclodextrin of example 1 [1]: detected

Compound: O=C(N[C@H](CO)[C@H](O)c1ccc([N+](=O)[O-])cc1)C(Cl)Cl [chloramphenicol]
- incorporation in nanoparticles of the cyclodextrin of example 1 [1]: detected

Compound: vitamin A
- incorporation in nanoparticles of the cyclodextrin of example 1 [1]: detected

Compound: mono-6-(cholest-5-en-3α-ylaamide)succinylamide-6-deoxy-2,2′,2″,2′″,2″″,2′″″,2″″″,6,6′,6″,6′″,6″″,6′″″,6″″″-trideca-O-methyl-cyclomaltoheptaose [example 1]
- critical micellar concentration cmc [2]: 9.10^−6 mol/l
- shape of aggregates ([3]; experimental spectrum superimposed with theoretical spectrum of spheres): spherical shape
- mean number of monomers per nanoparticle ([3]; theoretical spectrum simulating spheres): 24
- mean aggregate mass ([4]; aqueous solutions 2.5.10^−3, 5.10^−3 and 10^−2 mol/l): 43,000 g/mol
- mean monomers per nanoparticle ([4]; from mean aggregate mass): 24

Compound: O=c1ccc2cc(O[C@@H]3O[C@H](CO)[C@@H](O)[C@H](O)[C@H]3O)c(O)cc2o1 [esculin]
- incorporation in nanoparticles of the cyclodextrin of example 1 [1]: detected
